Consider eight molecules from patent US10280401B2, “Method of measuring inhibition of phosphatidylcholine export transport and/or formation activity” (Biotranex, LLC, priority 2015, dated 2019).

Assay [1] deals with PC export transport activity. The assay is described as follows: Inhibition of PC export transport activity in human hepatocytes (d9-choline, taurocholic acid, LC/MS/MS). In kind it is cell-based. The following applies: Hepatocyte, 100 μg/mL d9-choline, 5 mM taurocholic acid, 2 hours; for inhibition at 1 µM: drug 1 μM; for inhibition at 10 µM: drug 10 μM; for inhibition at 100 µM: drug 100 μM. As for the experimental part: (§1) The effect of a test agent in terms of percentage (%) of inhibition on PC export transport and/or formation activity is determined by the following equation: […]
(§2) Fifty mL InVitroGRO HT medium was pre-warmed in a 37° C. water bath. A vial of hepatocyte was removed from a liquid N2 tank and quickly warmed in a 37° C. water bath by holding in hand with slow rotation. As soon as the edge of the frozen cells was separated from the wall of the vial, the frozen cells were poured into the pre-warmed HT medium and the remaining cells in the vial were collected using pipette. The tube was centrifuged at 50 g, 25° C. for 5 minutes, the supernatant was removed and the cell pellet was re-suspended in 8 mL of pre-warmed Williams E buffer, the cell numbers were counted in a hemocytometer. […] The cells were counted in 0.4% Trypan blue (80 μL Williams E buffer+10 μL Trypan blue stock+10 μL cells). The hepatocyte concentration was adjusted with Williams E buffer to meet the objectives of various experiments.
(§3) LC/MS/MS assays: Liquid chromatography was carried out using a Shimadzu (Columbia, Md.) HPLC system consisting of an SCL-10 Avp system controller, two LC-10 ADvp pumps, a CTC HTC PAL autosampler, a Shimadzu SPD-10 ADvp UV detector and an automated switching valve. The switching valve was used to divert the column effluent to either waste or to the MS instrument. The Shimadzu HPLC system was used for sample injection and analyte separation. Each sample was loaded onto a reverse phase column, Phenomenex (Torrance, Calif.) Luna C85μ2 mm×50 mm. The column chamber's temperature was ambient. The initial HPLC mobile phase conditions used for separation and elution of analytes comprised 50% acetonitrile in water containing 0.1% formic acid (A) and isopropanol:acetonitrile (9:1) (B). The flow rate was 0.5 mL/min. The amount of B in the mobile phase was ramped linearly up to 62% over a 0.5-minute period followed by a slow increase to 63% B in 4.5 minutes, then a rapid increase to 95% B in 0.1 min. After holding at 95% B for 2.3 minutes, the mobile phase was reset to the initial conditions in 0.1 minute. The analytical column was equilibrated with the starting mobile phase for 2.5 minutes. The total run time for each sample analysis was approximately 10 minutes.
(§4) The HPLC elute was injected into an AB Sciex AP14000 LC/MS/MS system (Framingham, Mass.) equipped with a Turbo IonSpray source set with a desolvation temperature of 450° C. Nitrogen was used as curtain gas, nebulizer gas, heater gas, and collision gas. Data for PC was acquired in the positive ion mode using multiple reaction monitoring methods (MRM). The ion transitions of the MRM method for specific detection of PC species were developed in standard fashion. Ionspray voltage was set at 4000 V and the collision gas (CAD) set at 6. Declustering potential and collision energy was set at 50 and 42 respectively for PC. The PC species were monitored using the following transitions: 768→193, 770→193, 796→193, 798→193, 792→193, 794→193, 816→193. (S)-(+)-Methyl 2-(4,5,6,7-tetrahydrothieno[3,2-c]pyridin-5-yl)-2-(2-chlorophenyl)acetate hydrogensulfate was used as an internal standard with the following ion transition: 322.2→152.1. Propane-1-sulfonic acid {3-[5-(4-chlorophenyl)-1H-pyrrolo[2,3-b]pyridine-3-carbonyl]-2,4difluoro-phenyl}-amide was also used as an internal standard with the following ion transition: 490.1→383.1.
(§5) Data analysis: Extracellular concentrations of PC were determined by LC/MS/MS MRM analysis of the 4000 RPM supernatant fractions post-incubation. Cellular concentrations of PC were determined by LC/MS/MS MRM of the extracts of hepatocytes post incubation. PC export transport and/or formation activity and test agent percent inhibition were calculated using the following equations: […]

Assay [2] relates to PC export transport activity. The assay is described as follows: Inhibition of PC export transport activity in rat hepatocytes (d9-choline, taurocholic acid, LC/MS/MS). In kind it is cell-based. The following applies: Hepatocyte, 100 μg/mL d9-choline, 5 mM taurocholic acid, 2 hours; for inhibition at 1 µM: drug 1 μM; for inhibition at 10 µM: drug 10 μM; for inhibition at 100 µM: drug 100 μM. As for the experimental part:
as §1, §2, §3, §4, §5

Usually inhibition stands for the percentage by which the read-out fell short of the control. A high value points to a response far below the control. For `O=C(O)CCCC[C@@H]1SC[C@@H]2NC(=O)N[C@@H]21` [Biotin, biotin], in assay [1], the inhibition at 1 µM was ≤ 30%, the inhibition at 10 µM was ≤ 30% and the inhibition at 100 µM is ≤ 30%. In assay [2], the inhibition at 1 µM was ≤ 30%, the inhibition at 10 µM was ≤ 30% and the inhibition at 100 µM was ≤ 30%.

Turning to `CC(=O)N1CCN(c2ccc(OCC3COC(Cn4ccnc4)(c4ccc(Cl)cc4Cl)O3)cc2)CC1` (stereo not drawn) [Ketoconazole, ketoconazole], in assay [1], the inhibition at 1 µM was ≤ 30%, the inhibition at 10 µM lay within 30 to 70% and the inhibition at 100 µM was ≥ 70%. In assay [2], the inhibition at 1 µM was 30 to 70%, the inhibition at 10 µM was 30 to 70% and the inhibition at 100 µM was ≥ 70%.

For the molecule `Clc1ccccc1C(c1ccccc1)(c1ccccc1)n1ccnc1` [Clotrimazole, clotrimazole], in assay [2], the inhibition at 1 µM is ≤ 30%, the inhibition at 10 µM was ≤ 30% and the inhibition at 100 µM was ≥ 70%.

For the molecule `CC1=C(CC(=O)O)c2cc(F)ccc2/C1=C\c1ccc([S+](C)[O-])cc1` (stereo not drawn) [Sulindac, sulindac], in assay [2], the inhibition at 1 µM was ≤ 30%, the inhibition at 10 µM is 30 to 70% and the inhibition at 100 µM is ≥ 70%.

In the case of `COC1=CC(=O)C[C@@H](C)[C@]12Oc1c(Cl)c(OC)cc(OC)c1C2=O` [Griseofulvin, griseofulvin], in assay [2], the inhibition at 1 µM was ≤ 30%, the inhibition at 10 µM lay within 30 to 70% and the inhibition at 100 µM was ≥ 70%.

Consider `CC(C)(S)[C@@H](N)C(=O)O` [Penicillamine, penicillamine], for which, in assay [1], the inhibition at 1 µM is ≤ 30%, the inhibition at 10 µM is ≤ 30% and the inhibition at 100 µM is ≤ 30%.

As to `CN(C)CCCN1c2ccccc2Sc2ccc(Cl)cc21` [Chlorpromazine, chlorpromazine], in assay [1], the inhibition at 1 µM was ≤ 30%, the inhibition at 10 µM is 30 to 70% and the inhibition at 100 µM is ≥ 70%. For the same molecule, in assay [2], the inhibition at 1 µM was 30 to 70%, the inhibition at 10 µM was ≥ 70% and the inhibition at 100 µM was ≥ 70%.

On to `Cc1c(C)c2c(c(C)c1O)CCC(C)(COc1ccc(CC3SC(=O)NC3=O)cc1)O2` (stereo not drawn) [Troglitazone, troglitazone], for which, in assay [1], the inhibition at 1 µM was ≤ 30%, the inhibition at 10 µM lay in the range of 30 to 70% and the inhibition at 100 µM is ≥ 70%.
